Measurements as given in patent publication US20240335420A1, “N-ACYLHYDRAZONE COMPOUNDS CAPABLE OF INHIBITING NAV 1.7 AND/OR NAV 1.8, PROCESSES FOR THE PREPARATION THEREOF, COMPOSITIONS, USES, METHODS FOR TREATMENT USING SAME AND KITS” (EUROFARMA LABORATÓRIOS S.A., priority 2021, published 2024).

Assays:
[1] = biological target: human sodium channels Nav 1.7 (Homo sapiens (Human), UniProt Q15858); assay: Automated whole-cell voltage-clamp (ScreenPatch 384P), Nav 1.7 sodium current, Protocol 1; format: cell-based; conditions: CHO cells expressing human Nav 1.7; for IC50: Protocol 1 (holding −90 mV, 0.1 Hz), room temperature, read-out: Nav1.7 IC50; for inhibition at 10 µM: Protocol 1, read-out: Nav1.7 percent of inhibition (IC50 value not available)
Description: (§1) Biological assays were performed on Chinese hamster ovary (CHO) cells expressing the human sodium channels Nav 1.8 and Nav 1.7 stably.
(§2) The experimental voltage-clamp protocol using the whole cell configuration was established on the automated ScreenPatch® 384P platform (SP384PE, Nanion Technologies, Livingston, NJ) and recording of the results was performed with a Nanion 384-well Patch Clamp chip (NPC) (Nanion Technologies, Livingston, NJ).
(§3) Compounds of Formula (I), were diluted in eight concentrations in the extracellular solution composed of physiological saline, buffered with HEPES (mM): NaCl, 137; KCl, 4; CaCl2, 3.8; MgCl2, 1; HEPES, 10; Glucose, 10; pH 7.4. The […], 50; CsF, 90; MgCl2, 5; EGTA, 5; HEPES, 10; pH 7.2. The duration of exposure of each compound with the cells expressing Nav 1.7 or Nav 1.8 was at least five minutes and the assays were performed at room temperature.
(§4) The measurements of the sodium currents of Nav 1.8 and Nav 1.7 were obtained using the voltage protocols described below: • Protocol 1: A holding voltage of −90 mV was established followed by a voltage phase of 200 ms to −120 mV, followed by a voltage step of 10 mV for 1 second for Nav 1.8 or 0 mV for Nav 1.7, followed by a step of −100 mV for 20 ms, followed by a step of 20 ms for 10 mV for Nav 1.8 or 0 mV for Nav 1.7 (TP1A) before returning to the holding voltage of −90 mV. • Protocol 2: A holding voltage of −100 mV was established followed by an inactivation voltage step at −40 mV for 8 seconds, followed by a −100 mV step for […], followed by a 20 ms step for 10 mV for Nav 1.8 or 0 mV for Nav 1.7 (TP1A) before returning to the holding voltage of −100 mV.
(§5) Protocols were repeated at a frequency of 0.1 Hz (Protocol 1) or 0.05 Hz (Protocol 2) and current amplitude was quantified over the TP1A phase log. The variation in the peak amplitude of the current was evaluated according to the Formula described below, after exposure of the cells expressing the channels, at each concentration of the different compounds:
(§6) [formula] • where |TP1A, basal, and |TP1A, molecule represent the entry peaks of sodium currents into TP1A prior to exposure to the compound and in the presence of the compound, respectively.
(§7) The decrease in peak current amplitude, after exposure of the cells to the compounds, was used to calculate the percent relative blocking of the channels relative to the positive control according to the Formula below:
(§8) [formula] • where % V and % CP represent the averages of the values of current inhibition with a vehicle (DMSO) and positive controls, respectively. The sodium currents of the positive control were considered as 100%.
(§9) [formula] • where [Test] represents the concentration of the evaluated molecule, IC50 is the concentration of the compound that generates half of the maximum inhibition, N is the Hill's coefficient and % Block′ is the percentage of the sodium channel current (Nav 1.8 and Nav 1.7) inhibited at each concentration of the evaluated molecule. Data were obtained by non-linear least squares regression with XLfit for Excel (Microsoft, Redmond, WA).
(§10) Compounds were tested in at least one assay to obtain the IC50 value.

[2] = biological target: human sodium channels Nav 1.8 (Homo sapiens (Human), UniProt Q9Y5Y9); assay: Automated whole-cell voltage-clamp (ScreenPatch 384P), Nav 1.8 sodium current, Protocol 1; format: cell-based; conditions: CHO cells expressing human Nav 1.8; for IC50: Protocol 1 (holding −90 mV, 0.1 Hz), room temperature, read-out: Nav1.8 IC50; for inhibition at 10 µM: Protocol 1, read-out: Nav1.8 percent of inhibition (IC50 value not available)
Description: as §1, §2, §3, §4, §5, §6, §7, §8, §9, §10

human sodium channels Nav 1.8, sequence (Q9Y5Y9 whole entry): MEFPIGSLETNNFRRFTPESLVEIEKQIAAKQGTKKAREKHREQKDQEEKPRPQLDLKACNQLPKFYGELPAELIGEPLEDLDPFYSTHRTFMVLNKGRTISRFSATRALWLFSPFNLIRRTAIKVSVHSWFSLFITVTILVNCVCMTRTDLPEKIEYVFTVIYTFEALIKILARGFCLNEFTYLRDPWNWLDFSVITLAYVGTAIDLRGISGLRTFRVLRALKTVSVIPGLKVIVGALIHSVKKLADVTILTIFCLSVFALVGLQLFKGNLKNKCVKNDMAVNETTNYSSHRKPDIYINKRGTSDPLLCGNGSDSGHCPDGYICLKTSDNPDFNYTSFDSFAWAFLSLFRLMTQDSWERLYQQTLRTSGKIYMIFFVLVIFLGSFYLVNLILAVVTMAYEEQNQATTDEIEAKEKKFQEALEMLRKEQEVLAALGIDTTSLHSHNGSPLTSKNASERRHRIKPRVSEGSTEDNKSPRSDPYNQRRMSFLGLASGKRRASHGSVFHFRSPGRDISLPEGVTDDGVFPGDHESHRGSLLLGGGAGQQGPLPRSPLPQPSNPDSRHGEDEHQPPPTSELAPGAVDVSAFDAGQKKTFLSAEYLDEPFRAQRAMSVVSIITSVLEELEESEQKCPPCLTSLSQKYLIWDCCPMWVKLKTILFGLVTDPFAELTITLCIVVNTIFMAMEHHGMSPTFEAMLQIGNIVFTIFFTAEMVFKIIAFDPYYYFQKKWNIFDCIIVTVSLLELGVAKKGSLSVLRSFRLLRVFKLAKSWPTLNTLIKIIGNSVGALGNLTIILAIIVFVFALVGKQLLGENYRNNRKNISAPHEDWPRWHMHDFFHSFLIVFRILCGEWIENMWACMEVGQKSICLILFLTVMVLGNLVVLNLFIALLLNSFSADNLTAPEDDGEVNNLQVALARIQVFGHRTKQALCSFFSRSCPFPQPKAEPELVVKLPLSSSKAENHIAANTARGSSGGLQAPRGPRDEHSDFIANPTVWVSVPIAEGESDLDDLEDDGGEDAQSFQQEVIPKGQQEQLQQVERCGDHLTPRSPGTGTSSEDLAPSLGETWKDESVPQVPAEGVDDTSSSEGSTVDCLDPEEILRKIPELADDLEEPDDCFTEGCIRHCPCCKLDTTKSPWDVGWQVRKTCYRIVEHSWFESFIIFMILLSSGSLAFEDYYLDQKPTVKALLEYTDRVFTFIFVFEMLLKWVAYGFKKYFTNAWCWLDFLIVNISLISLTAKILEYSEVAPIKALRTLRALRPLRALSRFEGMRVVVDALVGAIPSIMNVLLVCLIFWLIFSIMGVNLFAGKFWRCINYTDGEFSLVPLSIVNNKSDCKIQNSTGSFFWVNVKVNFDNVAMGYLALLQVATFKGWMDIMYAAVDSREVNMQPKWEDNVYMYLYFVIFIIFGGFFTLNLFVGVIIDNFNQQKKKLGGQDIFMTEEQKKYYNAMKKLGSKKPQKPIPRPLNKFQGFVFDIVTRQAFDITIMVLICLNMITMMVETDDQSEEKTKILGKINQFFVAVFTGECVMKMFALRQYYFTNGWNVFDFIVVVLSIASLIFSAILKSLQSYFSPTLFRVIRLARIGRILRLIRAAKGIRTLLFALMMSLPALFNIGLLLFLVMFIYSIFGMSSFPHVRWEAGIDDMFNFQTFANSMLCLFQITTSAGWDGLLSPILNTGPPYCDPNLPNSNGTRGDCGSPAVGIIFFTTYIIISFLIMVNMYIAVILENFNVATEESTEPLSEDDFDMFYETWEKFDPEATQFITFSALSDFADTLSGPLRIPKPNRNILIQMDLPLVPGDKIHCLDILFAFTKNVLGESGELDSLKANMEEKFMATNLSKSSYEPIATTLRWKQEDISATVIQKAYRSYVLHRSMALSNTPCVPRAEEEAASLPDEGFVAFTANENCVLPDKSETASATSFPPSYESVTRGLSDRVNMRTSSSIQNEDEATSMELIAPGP
human sodium channels Nav 1.7, sequence (Q15858 whole entry): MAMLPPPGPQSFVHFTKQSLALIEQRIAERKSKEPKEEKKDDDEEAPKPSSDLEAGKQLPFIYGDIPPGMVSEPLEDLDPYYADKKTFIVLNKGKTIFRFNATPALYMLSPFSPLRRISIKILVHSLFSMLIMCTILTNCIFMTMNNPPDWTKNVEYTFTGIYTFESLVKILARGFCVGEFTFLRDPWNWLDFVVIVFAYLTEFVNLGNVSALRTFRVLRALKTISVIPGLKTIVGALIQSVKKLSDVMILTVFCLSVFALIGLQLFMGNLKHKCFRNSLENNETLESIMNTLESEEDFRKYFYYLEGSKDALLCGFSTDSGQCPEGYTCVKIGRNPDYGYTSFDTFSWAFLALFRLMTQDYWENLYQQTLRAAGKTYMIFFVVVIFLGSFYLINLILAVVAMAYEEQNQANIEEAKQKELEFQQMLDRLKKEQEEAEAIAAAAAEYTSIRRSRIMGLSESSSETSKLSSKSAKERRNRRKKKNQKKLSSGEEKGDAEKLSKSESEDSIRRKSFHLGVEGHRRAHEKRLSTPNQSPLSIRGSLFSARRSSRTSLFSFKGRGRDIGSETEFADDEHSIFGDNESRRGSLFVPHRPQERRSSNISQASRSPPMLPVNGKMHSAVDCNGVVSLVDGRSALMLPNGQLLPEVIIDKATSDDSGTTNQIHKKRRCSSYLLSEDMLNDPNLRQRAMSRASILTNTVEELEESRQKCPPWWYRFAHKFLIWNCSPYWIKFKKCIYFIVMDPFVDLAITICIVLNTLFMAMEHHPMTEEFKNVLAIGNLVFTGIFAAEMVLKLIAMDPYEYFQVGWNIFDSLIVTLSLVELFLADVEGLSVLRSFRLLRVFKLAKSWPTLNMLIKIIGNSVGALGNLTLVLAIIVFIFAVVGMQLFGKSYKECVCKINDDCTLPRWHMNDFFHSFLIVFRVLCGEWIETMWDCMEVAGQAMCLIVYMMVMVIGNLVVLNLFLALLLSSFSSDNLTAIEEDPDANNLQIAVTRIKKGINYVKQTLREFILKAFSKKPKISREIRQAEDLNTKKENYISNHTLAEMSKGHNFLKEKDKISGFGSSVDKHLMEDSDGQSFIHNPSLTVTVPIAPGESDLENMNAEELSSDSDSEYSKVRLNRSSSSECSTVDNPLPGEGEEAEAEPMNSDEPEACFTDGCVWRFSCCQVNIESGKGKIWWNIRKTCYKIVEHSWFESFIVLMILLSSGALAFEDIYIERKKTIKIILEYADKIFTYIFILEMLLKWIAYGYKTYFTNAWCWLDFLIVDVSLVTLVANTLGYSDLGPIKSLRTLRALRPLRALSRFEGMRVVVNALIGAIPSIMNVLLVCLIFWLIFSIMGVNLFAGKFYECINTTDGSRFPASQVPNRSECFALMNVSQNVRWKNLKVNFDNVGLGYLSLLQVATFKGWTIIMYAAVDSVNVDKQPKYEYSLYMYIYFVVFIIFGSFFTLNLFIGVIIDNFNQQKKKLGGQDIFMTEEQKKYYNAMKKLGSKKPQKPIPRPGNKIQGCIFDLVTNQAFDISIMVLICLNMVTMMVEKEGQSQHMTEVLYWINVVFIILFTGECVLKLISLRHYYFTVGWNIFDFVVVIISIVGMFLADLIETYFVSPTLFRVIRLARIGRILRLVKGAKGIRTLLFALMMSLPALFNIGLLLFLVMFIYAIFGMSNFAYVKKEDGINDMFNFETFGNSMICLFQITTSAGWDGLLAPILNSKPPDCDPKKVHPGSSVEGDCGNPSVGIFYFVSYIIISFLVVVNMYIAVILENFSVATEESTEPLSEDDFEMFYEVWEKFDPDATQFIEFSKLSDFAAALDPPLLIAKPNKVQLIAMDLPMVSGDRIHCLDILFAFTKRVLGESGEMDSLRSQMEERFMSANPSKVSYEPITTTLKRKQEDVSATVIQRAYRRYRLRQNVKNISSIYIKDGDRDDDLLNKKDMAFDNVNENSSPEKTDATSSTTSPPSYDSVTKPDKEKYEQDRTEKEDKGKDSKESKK

Structure (SMILES)	IC50 [1] [µM]	IC50 [2] [µM]	inhibition at 10 µM [1] [%]	inhibition at 10 µM [2] [%]
CCOc1ccc(-c2ccc(C(=O)N/N=C/c3cccs3)o2)cc1 [Compound 3, (E)-5-(4-ethoxyphenyl)-N′-(thiophen-2-ylmethylene) furan-2-carbohydrazide]	> 30	> 30	–	–
CCOc1ccc(-c2ccc(C(=O)N/N=C/c3cccnc3N3CCOCC3)o2)cc1 [Compound 4, (E)-5-(4-ethoxyphenyl)-N′-((2-morpholinopyridin-3-yl)methylene) furan-2-carbohydrazide]	–	–	< 10	< 10
CCOc1ccc(-c2ccc(C(=O)N/N=C/c3cc(CN(C)C)cs3)o2)cc1 [Compound 5, (E)-N′-((4-((dimethylamino)methyl)thiophen-2-yl)methylene)-5-(4-ethoxyphenyl) furan-2-carbohydrazide]	–	–	< 10	< 10
CC(C)Oc1ccc(-c2ccc(C(=O)N/N=C/c3cccs3)o2)cc1 [Compound 7, (E)-5-(4-isopropoxyphenyl)-N′-(thiophen-2-ylmethylene) furan-2-carbohydrazide]	> 16.7	> 6.27	–	–
CC(C)Oc1ccc(-c2ccc(C(=O)N/N=C/c3cc(CN(C)C)cs3)o2)cc1 [Compound 8, (E)-N′-((4-((dimethylamino)methyl)thiophen-2-yl)methylene)-5-(4-isopropoxyphenyl) furan-2-carbohydrazide]	–	–	< 10	< 10
O=C(N/N=C/c1cccs1)c1ccc(-c2ccc(OCCN3CCOCC3)cc2)o1 [Compound 9, (E)-5-(4-(2-morpholinoethoxy)phenyl)-N′-(thiophen-2-ylmethylene) furan-2-carbohydrazide]	–	–	< 10	< 10
CCOc1ccc(-c2cccc(C(=O)N/N=C/c3cccs3)n2)cc1 [Compound 12, (E)-6-(4-ethoxyphenyl)-N′-(thiophen-2-ylmethylene) picolinohydrazide]	1.89	3.21	–	–

The next lines start with the values.

IC50 [1] [µM]	IC50 [2] [µM]	inhibition at 10 µM [1] [%]	inhibition at 10 µM [2] [%]	Structure (SMILES)
> 30	> 30	–	–	COc1cc(/C=N/NC(=O)c2ccc(-c3ccc(Cl)cc3)o2)cc(OC)c1 [Compound 2, (E)-5-(4-chlorophenyl)-N′-(3,5-dimethoxybenzylidene) furan-2-carbohydrazide]
–	–	< 10	< 10	CCOc1ccc(-c2ccc(C(=O)N/N=C/c3cccnc3)o2)cc1 [Compound 6, (E)-5-(4-ethoxyphenyl)-N′-(pyridin-3-ylmethylene) furan-2-carbohydrazide]
12	8.58	–	–	O=C(N/N=C/c1cccs1)c1cccc(-c2ccc(Cl)cc2)n1 [Compound 11, (E)-6-(4-chlorophenyl)-N′-(thiophen-2-ylmethylene) picolinohydrazide]
–	–	< 10	< 10	CC(C)Oc1ccc(-c2cccc(C(=O)N/N=C/c3cccs3)n2)cc1 [Compound 13, (E)-6-(4-isopropoxyphenyl)-N′-(thiophen-2-ylmethylene) picolinohydrazide]
4.12	4.25	–	–	COc1cc(/C=N/NC(=O)c2cncc(-c3ccc(Cl)cc3)c2)cc(OC)c1 [Compound 16, (E)-5-(4-chlorophenyl)-N′-(3,5-dimethoxybenzylidene) nicotinohydrazide]
7.09	6.83	–	–	COc1cc(/C=N/NC(=O)c2cncc(-c3ccc(OC(F)(F)F)cc3)c2)cc(OC)c1 [Compound 17, (E)-N′-(3,5-dimethoxybenzylidene)-5-(4-(trifluoromethoxy)phenyl) nicotinohydrazide]
7.09	6.83	–	–	CCOc1ccc(-c2cncc(C(=O)N/N=C/c3cc(OC)cc(OC)c3)c2)cc1 [Compound 18, (E)-N′-(3,5-dimethoxybenzylidene)-5-(4-ethoxyphenyl) nicotinohydrazide]
5.72	5.9	–	–	COc1cc(/C=N/NC(=O)c2cncc(-c3ccc(OC(C)C)cc3)c2)cc(OC)c1 [Compound 19, (E)-N′-(3,5-dimethoxybenzylidene)-5-(4-isopropoxyphenyl) nicotinohydrazide]
